In article PMC5142287, “Weight control interventions improve therapeutic efficacy of dacarbazine in melanoma by reversing obesity-induced drug resistance” (Cancer & Metabolism, 2016):

Legend:
B16F10 melanoma [1] = assay: B16F10 melanoma isograft in HFD (obese) C57BL/6J mice: tumor growth and survival; type: in vivo; conditions: HFD mice, vs untreated counterparts
Procedure: (§1) To study the impact of diet-induced obesity on the outcome of DTIC therapy in melanoma, we treated B16F10 melanoma isografted obese mice with DTIC purchased from Sigma, USA (80 mg/kg intraperitoneally for five consecutive days as described previously). In addition, to look into the impact of weight loss interventions on the outcome of DTIC therapy in obese mice, mice were administered with orlistat (an antiobesity drug known to inhibit gastrointestinal lipases) and/or shifted from high fat to normal diet followed by DTIC treatment. The detailed experimental plan is illustrated in Fig. 1a. Briefly, obese mice were administered orally with orlistat (10 mg/kg on every alternate day) purchased from Enzo Life Sciences, NY, USA, and/or shifted from high fat diet to normal diet. HFD C57BL/6J mice treated with vehicle or orlistat were termed as HFD-HFD Ctrl and HFD-HFD Orli (N = 11 per each group), respectively, whereas HFD C57BL/6J mice shifted to normal diet and treated with vehicle or orlistat were grouped as HFD-ND Ctrl and HFD-ND Orli (N = 11 per each group), respectively. After 15 days, these mice were injected subcutaneously (s.c.) with B16F10 cells (2 × 10^5) in 100 μl of PBS and monitored daily for the presence of palpable tumors and dimensions were recorded on alternate days. […] Tumor volume was calculated using the formula 0.52 × length × width^2 and was followed up throughout the study.

B16F10 melanoma [2] = assay: B16F10 melanoma isograft in ND C57BL/6J mice: tumor growth and survival
Procedure: Melanoma cells were injected and orlistat treatment was continued. Following tumor formation, all groups of mice were treated with vehicle (acidified water) or DTIC, and tumor volume was followed up in these mice throughout the study as mentioned above. […] At the end of the experiment, mice were sacrificed, tumors were excised, and the samples were immediately preserved at −80 °C until further use. Five mice from each group were followed up for survival studies as mentioned above.

[3] = Obesity-associated factors in B16F10-isografted ND C57BL/6J mice; type: in vivo; conditions: end of experiment
Text: (§2) Blood glucose levels and serum lipids were estimated as described previously. Insulin, leptin, and adiponectin levels in the serum were estimated by mouse-specific respective ELISA kits as described. Resistin, IL-6, and TNF-α levels in the serum were detected by indirect ELISA as described previously.

[4] = Obesity-associated factors in B16F10-isografted HFD C57BL/6J mice (body weight, blood glucose, serum lipids, ELISA); type: in vivo; conditions: end of experiment, mean ± SD
Text: C57BL/6J mice were procured from Experimental Animal Facility (EAF) at National Centre for Cell Science (NCCS), Pune, India. High fat diet (24% fat) was purchased from Provimi Animal Nutrition Pvt. Ltd., Bangalore, India, and normal diet (5% fat) was obtained from Amrut Laboratory, Pune, India. The compositions of diets are provided in supplementary data (Additional file 1: Table S1). Diet-induced obesity was developed in the mice by feeding them with high fat diet as described previously. Male C57BL/6J mice (6–8 weeks old) were divided into normal diet (ND) and high fat diet (HFD) group. ND group was fed with normal diet while HFD group was fed with high fat diet supplemented with ground nut and dried coconut for 6 months. Body weight and serum chemistry profile were measured monthly to verify obesity-associated changes. Water and food were provided ad libitum to all the mice. All animal experiments were carried out as per the requirement and guidelines of the Committee for the Purpose of Control and Supervision of Experiments on Animals (CPCSEA), Government of India, and after obtaining permission of the Institutional Animal Ethics Committee (IAEC).
as §2, §1

3T3-L1 adipocytes = tested on: 3T3-L1 adipocytes; set-up: method as in PMID 10840932; conditions: cited from earlier work

Q: Which Tumor growth (B16F10 melanoma [1]) does the source give for `CCCCCCCCCCC[C@@H](C[C@@H]1OC(=O)[C@H]1CCCCCC)OC(=O)[C@H](CC(C)C)NC=O` [orlistat] here?
A: restricted tumor growth

Q: And the “Survival of tumor-bearing mice” value (B16F10 melanoma [2])?
A: did not influence

Q: What about the “Tumor progression (tumor volume and weight)” value (B16F10 melanoma [2]; DTIC 80 mg/kg i.p. 5 days, orlistat 10 mg/kg oral alternate days) of the same compound?
A: unaltered

Q: What about the Blood glucose ([3]; mean) of the same compound?
A: 161.83 mg/dL

Q: What about the “Serum IL-6” value ([3]; mean) of the same compound?
A: 19.99 pg/mL

Q: What about the “Serum LDLc” value ([3]; mean) of the same compound?
A: 51.26 mg/dL

Q: What about the “Serum TG” value ([3]; mean) of the same compound?
A: 54.93 mg/dL

Q: And the “Serum TNF-D” value ([3]; mean)?
A: 11.78 pg/mL

Q: And the Serum adiponectin ([3]; mean)?
A: 13803 ng/mL

Q: And the Serum cholesterol ([3]; mean)?
A: 81.36 mg/dL

Q: What about the “Serum free fatty acids” value ([3]; mean) of the same compound?
A: 0.89 mM/L

Q: What about the Serum insulin ([3]; mean) of the same compound?
A: 0.116 µg/L

Q: What about the Serum leptin ([3]; mean) of the same compound?
A: 15.43 ng/mL

Q: What about the Serum resistin ([3]; mean) of the same compound?
A: 0.98 ng/mL

Q: What about the Body weight ([3]; mean (SD on next line)) of the same compound?
A: 21.50 g

Q: What about the Body weight ([4]; HFD-HFD (continued on HFD), orlistat 10 mg/kg oral alternate days, DTIC 80 mg/kg i.p. 5 days) of the same compound?
A: 26.16 ± 0.71 (p < 0.0001) g

Q: And the Blood glucose ([4]; HFD-HFD)?
A: 146.3 ± 5.99 (p < 0.0001) mg/dl

Q: And the “Serum IL-6” value ([4]; HFD-HFD)?
A: 35.45 ± 2.88 (p < 0.0001) pg/ml

Q: What about the “Serum LDLc” value ([4]; HFD-HFD) of the same compound?
A: 66.69 ± 3.42 (p < 0.0001) mg/dl

Q: And the “Serum TG” value ([4]; HFD-HFD)?
A: 66.03 ± 3.39 (p < 0.0001) mg/dl

Q: What about the “Serum TNF-α” value ([4]; HFD-HFD) of the same compound?
A: 13.78 ± 1.07 (p < 0.0001) pg/ml

Q: And the Serum adiponectin ([4]; HFD-HFD)?
A: 8204 ± 593 (p < 0.0001) ng/ml

Q: What about the Serum cholesterol ([4]; HFD-HFD) of the same compound?
A: 95.75 ± 4.91 (p < 0.0001) mg/dl

Q: What about the “Serum free fatty acids” value ([4]; HFD-HFD) of the same compound?
A: 1.74 ± 0.09 (p < 0.0001) mM/l

Q: And the Serum insulin ([4]; HFD-HFD)?
A: 0.269 ± 0.01 (p < 0.0001) μg/l

Q: And the Serum leptin ([4]; HFD-HFD)?
A: 33.74 ± 2.47 (p < 0.0001) ng/ml

Q: And the Serum resistin ([4]; HFD-HFD)?
A: 1.66 ± 0.08 (p < 0.0001) ng/ml

Q: What about the Body weight ([4]; HFD-ND (shifted from HFD to normal diet)) of the same compound?
A: 23.1 ± 1.02 (p < 0.0001) g

Q: And the Blood glucose ([4]; HFD-ND)?
A: 128.83 ± 6.24 (p < 0.0001) mg/dl

Q: And the “Serum IL-6” value ([4]; HFD-ND)?
A: 29.25 ± 2.12 (p < 0.0001) pg/ml

Q: And the “Serum LDLc” value ([4]; HFD-ND)?
A: 63.31 ± 3.13 (p < 0.0001) mg/dl

Q: What about the “Serum TG” value ([4]; HFD-ND) of the same compound?
A: 60.53 ± 3.15 (p < 0.0001) mg/dl

Q: And the “Serum TNF-α” value ([4]; HFD-ND)?
A: 11.48 ± 1.12 (p < 0.0001) pg/ml

Q: And the Serum adiponectin ([4]; HFD-ND)?
A: 9108 ± 550 (p < 0.0001) ng/ml

Q: What about the Serum cholesterol ([4]; HFD-ND) of the same compound?
A: 88.64 ± 5.17 (p < 0.0001) mg/dl

Q: What about the “Serum free fatty acids” value ([4]; HFD-ND) of the same compound?
A: 1.66 ± 0.08 (p < 0.0001) mM/l

Q: What about the Serum insulin ([4]; HFD-ND) of the same compound?
A: 0.2570 ± 0.01 (p < 0.0001) μg/l

Q: What about the Serum leptin ([4]; HFD-ND) of the same compound?
A: 26.54 ± 1.60 (p < 0.0001) ng/ml

Q: What about the Serum resistin ([4]; HFD-ND) of the same compound?
A: 1.19 ± 0.06 (p < 0.0001) ng/ml

Q: And the “Differentiation of 3T3-L1 adipocytes” value (3T3-L1 adipocytes)?
A: inhibited
